Measured values from paper PMC11089506 (Journal of Medicinal Chemistry, 2024).
Counter-ions that a name gives are not always drawn. Like-named read-outs stand apart in the source and are kept apart here.

Columns and labels:
[1] = target: human 5-HT2CR (Homo sapiens, UniProt P28335); experiment: Ca2+/Fluo-4 assay, agonist mode, stable 5-HT2CR-HEK293 cells; details: for 5-HT2CR Rmax ± S.E.M.: % of the 5-HT Rmax on the same 96-well plate; for 5-HT2CR Rmax (%): % of the 5-HT Rmax
[2] = target: human 5-HT2AR (Homo sapiens, UniProt P28223); experiment: Ca2+/Fluo-4 assay, agonist mode, stable 5-HT2AR-HEK293 cells; details: for 5-HT2AR Rmax (%): % of the 5-HT Rmax; for 5-HT2AR pEC50 ± S.E.M. / 5-HT2AR Rmax ± S.E.M.: Table S2; for 5-HT2AR Rmax ± S.E.M.: % of the 5-HT Rmax on the same 96-well plate; for EC50: at least 3 independent experiments
human 5-HT2AR, sequence (P28223 whole entry): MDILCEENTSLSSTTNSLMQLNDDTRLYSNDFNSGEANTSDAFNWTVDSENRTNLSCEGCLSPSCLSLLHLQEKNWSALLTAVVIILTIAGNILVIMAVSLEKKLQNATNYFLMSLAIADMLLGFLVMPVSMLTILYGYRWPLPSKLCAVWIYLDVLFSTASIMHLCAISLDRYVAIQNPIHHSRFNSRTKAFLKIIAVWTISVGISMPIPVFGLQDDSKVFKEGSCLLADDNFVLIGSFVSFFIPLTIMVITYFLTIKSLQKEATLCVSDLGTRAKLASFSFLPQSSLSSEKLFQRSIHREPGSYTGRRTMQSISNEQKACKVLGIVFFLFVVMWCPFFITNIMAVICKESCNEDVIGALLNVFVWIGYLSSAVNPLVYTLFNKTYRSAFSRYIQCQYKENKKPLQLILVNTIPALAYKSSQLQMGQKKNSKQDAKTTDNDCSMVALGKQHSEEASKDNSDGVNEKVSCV

[3] = 5-HT2CR EC50 (nM), Table 2, at least 3 independent experiments
[4] = read-out: 5-HT2AR EC50, Table 1
[5] = read-out: 5-HT2CR EC50, Table 1, at least 3 independent experiments
[6] = 5-HT2CR EC50 (nM), Table 1, at least 3 independent experiments

human 5-HT2CR, sequence (P28335 33-458): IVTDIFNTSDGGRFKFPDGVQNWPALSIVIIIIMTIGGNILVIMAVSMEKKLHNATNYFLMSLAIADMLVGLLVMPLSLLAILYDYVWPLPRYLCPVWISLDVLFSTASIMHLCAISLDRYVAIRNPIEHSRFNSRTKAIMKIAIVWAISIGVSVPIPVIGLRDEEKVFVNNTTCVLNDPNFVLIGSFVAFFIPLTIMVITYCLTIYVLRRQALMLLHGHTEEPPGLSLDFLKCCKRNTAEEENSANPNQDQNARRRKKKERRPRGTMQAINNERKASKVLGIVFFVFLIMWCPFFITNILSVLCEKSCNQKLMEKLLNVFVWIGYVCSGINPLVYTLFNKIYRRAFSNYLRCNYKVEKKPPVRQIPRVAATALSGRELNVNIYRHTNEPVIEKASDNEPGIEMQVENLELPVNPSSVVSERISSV

COc1cc(C(F)(F)F)c(OC)cc1[C@H]1CCCNC1 [(R)-11, 3-(2,5-Dimethoxy-4-(trifluoromethyl)phenyl)piperidine Hydrochloride]
5-HT2CR pEC50 ± S.E.M. ([1]; Table S2): 6.07 ± 0.06

COc1cc(C(F)(F)F)c(OC)cc1[C@H]1CCCN(C)C1 [(R)-19, (R)-3-(2,5-Dimethoxy-4-(trifluoromethyl)phenyl)-1-methylpiperidine]
5-HT2AR Rmax (%) ([2]; Table 2): 53%
5-HT2AR pEC50 ± S.E.M. [2]: 5.96 ± 0.09
5-HT2AR Rmax ± S.E.M. [2]: 53 ± 8%
EC50 [1, 3]: > 10000 nM

CCN1CCC[C@H](c2cc(OC)c(C(F)(F)F)cc2OC)C1 [(R)-20, (R)-3-(2,5-Dimethoxy-4-(trifluoromethyl)phenyl)-1-ethylpiperidine]
EC50 ([2]; 5-HT2AR EC50 (nM), Table 2): > 10000 nM
EC50 [1, 3]: > 10000 nM

COc1cc(C(F)(F)F)c(OC)cc1[C@@H]1CCCN(C)C1 [(S)-19, (S)-3-(2,5-Dimethoxy-4-(trifluoromethyl)phenyl)-1-methylpiperidine]
5-HT2AR Rmax (%) ([2]; Table 2): 19%
5-HT2AR Rmax ± S.E.M. [2]: 19 ± 2%
5-HT2CR pEC50 ± S.E.M. ([1]; Table S2): 6.04 ± 0.03

CCN1CCC[C@@H](c2cc(OC)c(C(F)(F)F)cc2OC)C1 [(S)-20, (S)-3-(2,5-Dimethoxy-4-(trifluoromethyl)phenyl)-1-ethylpiperidine]
5-HT2AR Rmax (%) ([2]; Table 2): 44%
5-HT2AR pEC50 ± S.E.M. [2]: 5.82 ± 0.08
5-HT2AR Rmax ± S.E.M. [2]: 44 ± 3%
EC50 [1, 3]: > 10000 nM

COc1cc(C2CNC2)c(OC)cc1Br [Compound 4, 3-(4-Bromo-2,5-dimethoxyphenyl)azetidine Hydrochloride]
5-HT2AR Rmax (%) ([2]; Table 1): 97 ± 3%
5-HT2AR pEC50 ± S.E.M. [2]: 8.80 ± 0.10
5-HT2AR Rmax ± S.E.M. [2]: 97 ± 3%
EC50 [2, 4]: 1.6 nM
5-HT2CR pEC50 ± S.E.M. ([1]; Table S2): 8.24 ± 0.07
5-HT2CR Rmax ± S.E.M. ([1]; Table S2): 90 ± 3%
EC50 [1, 5]: 5.2 nM

NCCc1c[nH]c2ccc(O)cc12 [Compound 5-HT, 5-hydroxytryptamine, reference compound]
5-HT2AR Rmax (%) ([2]; Table 1): 100%
5-HT2AR Rmax ± S.E.M. [2]: 100%

Br.COc1cc(C2CCNC2)c(OC)cc1Br (stereo not shown) [Compound 5dis, 3-(4-Bromo-2,5-dimethoxyphenyl)pyrrolidine Hydrobromide]
5-HT2AR Rmax (%) ([2]; Table 1): 39 ± 4%
5-HT2AR pEC50 ± S.E.M. [2]: 8.11 ± 0.08
5-HT2AR Rmax ± S.E.M. [2]: 39 ± 4%
EC50 [2, 4]: 7.7 nM
Rmax at 5-HT2CR [1]: 73%
5-HT2CR Rmax (%) ([1]; Table 1): 16 ± 3%
5-HT2CR pEC50 ± S.E.M. ([1]; Table S2): 7.75 ± 0.08
5-HT2CR Rmax ± S.E.M. ([1]; Table S2): 16 ± 3%
EC50 [1, 5]: 18 nM

Br.COc1cc(C2CCNC2)c(OC)cc1Br (stereo not shown) [Compound 5eu, 3-(4-Bromo-2,5-dimethoxyphenyl)pyrrolidine Hydrobromide]
5-HT2AR Rmax (%) ([2]; Table 1): 57 ± 3%
5-HT2AR pEC50 ± S.E.M. [2]: 8.28 ± 0.07
5-HT2AR Rmax ± S.E.M. [2]: 57 ± 3%
EC50 [2, 4]: 5.3 nM
Rmax at 5-HT2CR [1]: 16%
5-HT2CR Rmax (%) ([1]; Table 1): 73 ± 3%
5-HT2CR pEC50 ± S.E.M. ([1]; Table S2): 7.59 ± 0.03
5-HT2CR Rmax ± S.E.M. ([1]; Table S2): 73 ± 3%
EC50 [1, 5]: 26 nM

COc1cc(C2CCCNC2)c(OC)cc1Br (stereo not shown) [Compound 6dis, 3-(4-Bromo-2,5-dimethoxyphenyl)piperidine]
EC50 ([2]; 5-HT2AR EC50 (nM), Table 1): 370 nM
EC50 [1, 6]: 1900 nM

COc1ccc(OC)c(C2CCCNC2)c1 (stereo not shown) [Compound 7, 3-(2,5-Dimethoxyphenyl)piperidine]
agonist activity at 5-HT2AR (in words) [2]: very weak 5-HT2AR agonist activity
EC50 ([2]; 5-HT2AR EC50 (nM), Table 1): > 10000 nM
EC50 [1, 6]: > 10000 nM

COc1cc(C2CCCNC2)c(OC)cc1Cl (stereo not shown) [Compound 8dis, 3-(4-Chloro-2,5-dimethoxyphenyl)piperidine]
5-HT2AR pEC50 ± S.E.M. [2]: 6.16 ± 0.11
EC50 [2, 4]: 690 nM
5-HT2CR pEC50 ± S.E.M. ([1]; Table S2): 5.75 ± 0.04
EC50 [1, 5]: 1800 nM

COc1cc(C2CCCNC2)c(OC)cc1I (stereo not shown) [Compound 9dis, 3-(4-Iodo-2,5-dimethoxyphenyl)piperidine]
5-HT2AR pEC50 ± S.E.M. [2]: 6.58 ± 0.03
EC50 [2, 4]: 260 nM
5-HT2CR pEC50 ± S.E.M. ([1]; Table S2): 5.55 ± 0.08
EC50 [1, 5]: 2800 nM

COc1cc(C2CCCNC2)c(OC)cc1C#N (stereo not shown) [Compound 10dis, 2,5-Dimethoxy-4-(piperidin-3-yl)benzonitrile]
5-HT2AR pEC50 ± S.E.M. [2]: 5.66 ± 0.06
EC50 [2, 4]: 2200 nM
5-HT2CR pEC50 ± S.E.M. ([1]; Table S2): ~ 5.0
EC50 [1, 5]: ~10000 nM
EC50 ([1]; read-out: 5-HT2CR EC50, Table S2): ~10000 nM

COc1cc(C2CCCNC2)c(OC)cc1C.Cl (stereo not shown) [Compound 12dis, 3-(2,5-Dimethoxy-4-methylphenyl)piperidine Hydrochloride]
5-HT2AR pEC50 ± S.E.M. [2]: 6.58 ± 0.06
EC50 [2, 4]: 260 nM
5-HT2CR pEC50 ± S.E.M. ([1]; Table S2): 5.92 ± 0.08
EC50 [1, 5]: 1200 nM

COc1cc(C2CCCNC2)c(OC)cc1C.Cl (stereo not shown) [Compound 12eu, 3-(2,5-Dimethoxy-4-methylphenyl)piperidine Hydrochloride]
5-HT2AR pEC50 ± S.E.M. [2]: 6.98 ± 0.10
EC50 [2, 4]: 100 nM
EC50 [1, 6]: > 10000 nM

CCc1cc(OC)c(C2CCCNC2)cc1OC.Cl (stereo not shown) [Compound 13dis, 3-(4-Ethyl-2,5-dimethoxyphenyl)piperidine Hydrochloride]
5-HT2AR pEC50 ± S.E.M. [2]: 6.94 ± 0.09
EC50 [2, 4]: 110 nM
5-HT2CR pEC50 ± S.E.M. ([1]; Table S2): 6.19 ± 0.12
EC50 [1, 5]: 640 nM

CCc1cc(OC)c(C2CCCNC2)cc1OC.Cl (stereo not shown) [Compound 13eu, 3-(4-Ethyl-2,5-dimethoxyphenyl)piperidine Hydrochloride]
5-HT2AR pEC50 ± S.E.M. [2]: 7.39 ± 0.11
EC50 [2, 4]: 41 nM
agonist activity at 5-HT2CR (in words) [1]: measurable agonist activity
5-HT2CR pEC50 ± S.E.M. ([1]; Table S2): 6.42 ± 0.12
EC50 [1, 5]: 380 nM

CCCCc1cc(OC)c(C2CCCNC2)cc1OC.Cl (stereo not shown) [Compound 14dis, 3-(4-Butyl-2,5-dimethoxyphenyl)piperidine Hydrochloride]
5-HT2AR pEC50 ± S.E.M. [2]: 6.46 ± 0.05
EC50 [2, 4]: 340 nM
5-HT2CR pEC50 ± S.E.M. ([1]; Table S2): 5.80 ± 0.07
EC50 [1, 5]: 1600 nM

CCCCc1cc(OC)c(C2CCCNC2)cc1OC.Cl (stereo not shown) [Compound 14eu, 3-(4-Butyl-2,5-dimethoxyphenyl)piperidine Hydrochloride]
5-HT2AR pEC50 ± S.E.M. [2]: 6.57 ± 0.06
EC50 [2, 4]: 270 nM
EC50 [1, 6]: > 10000 nM

COc1cc(C2CCCNC2)c(OC)cc1SC.Cl (stereo not shown) [Compound 15dis, 3-(2,5-Dimethoxy-4-(methylthio)phenyl)piperidine Hydrochloride]
5-HT2AR pEC50 ± S.E.M. [2]: 6.75 ± 0.06
EC50 [2, 4]: 180 nM
5-HT2CR pEC50 ± S.E.M. ([1]; Table S2): 5.63 ± 0.03
EC50 [1, 5]: 2300 nM

COc1cc(C2CCCNC2)c(OC)cc1SC.Cl (stereo not shown) [Compound 15eu, 3-(2,5-Dimethoxy-4-(methylthio)phenyl)piperidine Hydrochloride]
5-HT2AR pEC50 ± S.E.M. [2]: 7.59 ± 0.11
EC50 [2, 4]: 26 nM
5-HT2CR pEC50 ± S.E.M. ([1]; Table S2): 6.29 ± 0.06
EC50 [1, 5]: 510 nM

CCSc1cc(OC)c(C2CCCNC2)cc1OC.Cl (stereo not shown) [Compound 16dis, 3-(2,5-Dimethoxy-4-(ethylthio)phenyl)piperidine Hydrochloride]
5-HT2AR pEC50 ± S.E.M. [2]: 6.73 ± 0.10
EC50 [2, 4]: 190 nM
5-HT2CR pEC50 ± S.E.M. ([1]; Table S2): 6.11 ± 0.08
EC50 [1, 5]: 780 nM

CCSc1cc(OC)c(C2CCCNC2)cc1OC.Cl (stereo not shown) [Compound 16eu, 3-(2,5-Dimethoxy-4-(ethylthio)phenyl)piperidine Hydrochloride]
5-HT2AR pEC50 ± S.E.M. [2]: 7.42 ± 0.09
EC50 [2, 4]: 38 nM
5-HT2CR pEC50 ± S.E.M. ([1]; Table S2): 6.25 ± 0.08
EC50 [1, 5]: 570 nM

COc1cc(C2CCCNC2)c(OC)cc1SC(C)C (stereo not shown) [Compound 17dis, 3-(4-(Isopropylthio)-2,5-dimethoxyphenyl)piperidine]
5-HT2AR pEC50 ± S.E.M. [2]: 6.54 ± 0.09
EC50 [2, 4]: 290 nM
5-HT2CR pEC50 ± S.E.M. ([1]; Table S2): 5.64 ± 0.05
EC50 [1, 5]: 2300 nM

COc1cc(C2CCCNC2)c(OC)cc1SC(C)C (stereo not shown) [Compound 17eu, 3-(4-(Isopropylthio)-2,5-dimethoxyphenyl)piperidine]
5-HT2AR pEC50 ± S.E.M. [2]: 6.81 ± 0.09
EC50 [2, 4]: 160 nM
EC50 [1, 6]: > 10000 nM

COc1cc(C2CCCNC2)ccc1C(F)(F)F.Cl (stereo not shown) [Compound 23, 3-(3-Methoxy-4-(trifluoromethyl)phenyl)piperidine Hydrochloride]
fold drop in agonist potency (fold higher EC50) at 5-HT2AR ([2]; relative to (S)-11): more than 500 fold
